Four molecules from patent US20230048888A1, “USE OF TRIAZOLOTRIAZINE DERIVATIVE IN TREATMENT OF DISEASES” (ZHEJIANG VIMGREEN PHARMACEUTICALS, LTD., priority 2019, published 2023) can be followed below.

One data set deals with T1, human ADORA2A (Homo sapiens, UniProt P29274).
T1 construct: host or cells: CHO
The experiment in a line: Calcium flow test (FLIPR), ADORA2A stably transfected CHO. The class given is cell-based. Particulars: Table 9. From the text: (§1) The binding of the A2AR agonist to A2AR could activate a downstream pathway to increase the intracellular calcium ion concentration. The antagonist would competitively occupy the binding site where the agonist binds to A2AR, thereby interrupting the intracellular signal transduction and leading to a change in the intracellular calcium ion concentration. By detecting the strength of the intracellular calcium ion signal, the antagonistic activities of the compound on human ADORA1, ADORA2A, ADORA2B and ADORA3 adenosine receptors were determined. […]
(§2) 7) The FLIPR instrument software was operated; following a set program, 10 μL of experimental buffer salt solution was added to the cell plate; and fluorescence signals were read. Then, 10 μL of the reference compound of agonist at a predetermined concentration was added to the cell plate, and the fluorescence signals were read. After reading, data was exported by means of “Max-Min” and “Read 91 to Maximum allowed” in the software, the EC80 of each cell line was calculated, and an agonist with a concentration of 6×EC80 was prepared.
(§3) 9) The FLIPR instrument software was operated; following a set program, 10 μL of the test compound and 10 μL of the reference compound were added at a predetermined concentration to the cell plate; and the fluorescence signals were read. […]

In a further data set the target is T2, human ADORA2B (Homo sapiens, UniProt P29275).
T2 construct: host or cells: HEK293
The experiment in a line: Calcium flow test (FLIPR), ADORA2B stably transfected HEK293. The format is cell-based. Particulars: Table 9.
Description: as §1, §2, §3

Data set [1] relates to 6-OHDA Parkinson's disease model with L-DOPA resistance. Kind of data set: 6-OHDA-induced rat rotation experiment, second stage: L-DOPA resistance (rotation response time). The class given is in vivo, Wistar rats. From the text: After long-term use of levodopa, patients with Parkinson's disease are prone to drug resistance (end-of-dose phenomenon). That is, the duration of its pharmaceutical effect tends to gradually become shorter (shortened opening period), its efficacy will become weaker and weaker, and the symptoms of the patients are becoming more and more uncontrollable. By the combined use with the test compound, the efficacy of levodopa can be restored for patients with Parkinson's disease in the off phase, who have already experienced the end-of-dose phenomenon. The rat model of Parkinson's disease was constructed by fixed-point injection of 6-hydroxydopamine (6-OHDA) to damage the substantia nigra striatum, and then the animals were administrated with levodopa (L-DOPA)/Benserazide (BID) for a long term (3-4 weeks as planned). […] On Day 22, at 60 minutes before the intraperitoneal injection of L-DOPA (20 mg/kg)/Benserazide (5 mg/kg), each test group was orally administered with the vehicle, test drug or positive drug. […] Four rotation tests were performed on Days 0, 7, 14 and 21 respectively. On the day of test, both the test drug and the control drug were administered orally only once. On this day, all test animals were also administered with L-DOPA (20 mg/kg)/Benserazide (5 mg/kg) once by intraperitoneal injection to induce rotation. In the second stage, the time for counting rotation with the rotation counter is 180 min. [table] In the second stage, after the intraperitoneal injection of L-DOPA/Benserazide to the experimental animals, the total number of rotations was recorded every 5 min, and the number of rotations per 5 min was calculated based on this, and the 5 min with the largest number of rotations was found from it, and the number of rotations within this 5 min was defined as the peak number of rotations. The first 5 minutes when the number of rotations increased to 20% of the peak number of rotations was the starting point of the rotation response time, and the first 5 minutes when the number of rotations dropped to 20% of the peak number of rotations was the terminating point of the rotation response time. The time between the starting point and the terminating point was regarded as the rotation response time. The test results are represented as “mean±standard deviation”. The data was statistically analyzed by the SPSS16.0 software package. One-way ANOVA, paired sample T test and independent sample T test were used for comparison, with P<0.05 showing a statistical difference.

Setting [2] is: Group 5 (10 mg/kg, Day 22) + L-DOPA/Benserazide, before test drug.
[3] abbreviates: Group 8: 10 mg/kg oral BID*21 + L-DOPA/Benserazide.
[4] abbreviates: Group 3 (7.5 mg/kg, Day 22) + L-DOPA/Benserazide, before test drug.
[5] abbreviates: Group 4 (15 mg/kg, Day 22) + L-DOPA/Benserazide, before test drug.
Setting [6] is: Group 6 (30 mg/kg, Day 22) + L-DOPA/Benserazide, before test drug.
Setting [7] is: Group 7: 5 or 10 mg/kg oral BID*21 + L-DOPA/Benserazide.

T1 sequence (P29274 whole entry): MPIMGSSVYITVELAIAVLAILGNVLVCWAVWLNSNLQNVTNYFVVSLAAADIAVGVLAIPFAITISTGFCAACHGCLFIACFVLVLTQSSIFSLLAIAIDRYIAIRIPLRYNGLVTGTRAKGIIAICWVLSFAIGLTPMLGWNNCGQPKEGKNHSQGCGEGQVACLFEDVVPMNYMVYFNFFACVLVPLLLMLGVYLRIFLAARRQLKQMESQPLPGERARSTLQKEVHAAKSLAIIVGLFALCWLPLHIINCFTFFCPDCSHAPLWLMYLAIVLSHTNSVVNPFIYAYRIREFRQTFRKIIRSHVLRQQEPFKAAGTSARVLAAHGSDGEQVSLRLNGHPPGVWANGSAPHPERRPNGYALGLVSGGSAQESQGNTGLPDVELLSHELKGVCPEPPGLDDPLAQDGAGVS
T2 sequence (P29275 whole entry): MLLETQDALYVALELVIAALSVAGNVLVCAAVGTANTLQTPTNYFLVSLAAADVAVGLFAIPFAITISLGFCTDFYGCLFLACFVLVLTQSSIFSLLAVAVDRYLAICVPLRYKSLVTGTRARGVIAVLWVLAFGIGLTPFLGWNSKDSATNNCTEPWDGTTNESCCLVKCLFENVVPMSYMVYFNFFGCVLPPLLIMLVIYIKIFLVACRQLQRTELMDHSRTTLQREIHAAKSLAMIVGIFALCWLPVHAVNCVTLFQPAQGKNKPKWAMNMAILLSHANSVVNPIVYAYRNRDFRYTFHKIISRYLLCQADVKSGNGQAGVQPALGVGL

For the molecule `Nc1nc(NCCc2ccc(NC3COC3)cc2)nc2nc(-c3ccco3)nn12` [Compound 22, 2-(furan-2-yl)-N5-(4-(oxetan-3-ylamino)phenethyl)-[1,2,4]triazolo[1,5-a][1,3,5]triazine-5,7-diamine], the IC50 on human ADORA2A amounted to 0.35 ± 0.07 nM; on human ADORA2B it was 106 ± 29.2 nM.
In the case of `CCn1c(=O)c2c(nc(/C=C/c3ccc(OC)c(OC)c3)n2C)n(CC)c1=O` [Istradefylline, reference compound], in data set [1] (setting [2]), the “Rotational reaction time - Day 0” value was found to be 116.1 ± 34.4 min, the “Rotational reaction time - Day 7” value was 126.7 ± 10.6 min, the “Rotational reaction time - Day 14” value worked out at 116.3 ± 13.8 min and the “Rotational reaction time - Day 21” value is on record as 114.4 ± 15.9 min. In data set [1] (Group 5: 10 mg/kg single oral Day 22 + L-DOPA/Benserazide), the “Rotational reaction time - Day 22” value is given as 150.6 ± 37.8& min. In addition, in data set [1] (setting [3]), the “Rotational reaction time - Day 0” value came to 161.5 ± 14.2 min and the “Rotational reaction time - Day 7” value is listed as 125.0 ± 23.5 min.
On to `CC(=O)O.Nc1nc(NCCc2ccc(NC3COC3)cc2)nc2nc(-c3ccco3)nn12` [Acetate of Compound 22, 2-(furan-2-yl)-N5-(4-(oxetane-3-ylamino)phenethyl)-[1,2,4]triazolo[1,5-a][1,3,5]triazine-5,7-diamine acetate], for which the “Rotational reaction time - Day 0” value was found to be 129.0 ± 9.1 min in data set [1] (setting [4]), 128.9 ± 11.7 min in data set [1] (setting [5]), 135.0 ± 13.1 min in data set [1] (setting [6]) and 150.5 ± 11.9 min in data set [1] (setting [7]). In addition, the “Rotational reaction time - Day 7” value was determined as 110.0 ± 27.1 min in data set [1] (setting [4]), 113.3 ± 13.0 min in data set [1] (setting [5]), 121.0 ± 13.3 min in data set [1] (setting [6]) and 145.6 ± 3.0 min in data set [1] (setting [7]). The “Rotational reaction time - Day 14” value in data set [1] (setting [4]) worked out at 109.5 ± 11.7 min; in data set [1] (setting [5]), 111.1 ± 17.8 min; in data set [1] (setting [6]), 110.6 ± 21.9 min; in data set [1] (setting [7]), 133.9 ± 8.9 min. For the same molecule, the “Rotational reaction time - Day 21” value in data set [1] (setting [4]) is 111.5 ± 14.0 min; in data set [1] (setting [5]), 97.5 ± 42.7 min; in data set [1] (setting [6]), 104.4 ± 23.0 min; in data set [1] (setting [7]), 128.3 ± 13.5 min. Further, the entries for the “Rotational reaction time - Day 22” value in data set [1] (Group 3: 7.5 mg/kg single oral Day 22 + L-DOPA/Benserazide), in data set [1] (Group 4: 15 mg/kg single oral Day 22 + L-DOPA/Benserazide) and in data set [1] (Group 6: 30 mg/kg single oral Day 22 + L-DOPA/Benserazide) were 133.5 ± 30.0^ min, 146.3 ± 37.0& min and 153.9 ± 22.7& min, respectively. The “Effect on body weight of the test animal” value in data set [1] (during the test period, vs model control group) is “no significant effect on the body weight”.
For `Cn1nnc(-c2ccc(CCNc3nc(N)n4nc(-c5ccco5)nc4n3)cc2)n1` [Compound 40, N5-(4-(2-methyl-2H-tetrazol-5-yl)phenethyl)-2-(furan-2-yl)-[1,2,4]triazolo[1,5-a][1,3,5]triazine-5,7-diamine], the figures for the IC50 at human ADORA2A and at human ADORA2B were 1.17 ± 0.62 nM and 194 ± 25.5 nM, respectively.
